Source: patent EP0064445A1, “N-substituted 2,4-dialkoxybenzene sulfon amides” (CHOAY S.A., priority 1981, dated 1982)

System: souris SWISS
Experiment: Interaction with pentobarbital: pentobarbital sleep time in mice
Format: in vivo
Conditions: 200 mg/kg oral; for Temps de sommeil (pentobarbital): male SWISS mice, lots of 10, 60 min before pentobarbital 40 mg/kg i.p.; for effet sur le sommeil au pentobarbital: result in words, mice
Source text: Les essais sont réalisés sur des souris SWISS, EOPS de sexe mâle, pesant de 20 à 24 g, en provenance du centre d'élevage de LE GENEST.
Les animaux sont acclimatés au moins 8 jours à l'animalerie du laboratoire avant les essais.
Les lots sont de 10 souris par test et par produit.
A titre de produits de référence, pour effectuer les essais témoins, on a utilisé les trois substances suivantes : • - N-[(éthyl-1 pyrrolidinyl-2) méthy17méthoxy-2 sulfamoyl-5 benzamide connue sous la désignation sulpiride; • - N-[(éthyl-1 pyrrolidinyl-2)méthy17méthoxy-2 éthylsulfonyl-5 benzamide connue sous la désignation sultopride; • - N-(diéthylamino-2 éthyl) méthoxy-2 méthylsulfonyl-5 benzamide connue sous la désignation tiapride.
Les composés selon l'invention et les substances de référence sont administrés en suspension aqueuse dans l'eau ordinaire à 3% en gomme arabique pour la voie orale (tests d'interactions avec les barbituriques).
Le réactif pharmacologique à savoir le pentobarbital est administré en solution dans du soluté isotonique de NaCl.
Les volumes administrés sont de 0,5 ml d'une solution à 1,6 g/1 pour 20 g de poids corporel par voie intrapérito- néale (40 mg/kg).
Pour effectuer ces essais, on administre à des lots de 10 souris SWISS mâles les composés selon l'invention ou les produits de référence (à savoir sulpiride, sultopride ou tiapride) par voie orale à raison de 200 mg/kg. 60 minutes après l'ingestion des composés selon l'invention ou des produits de référence, on administre aux animaux le pentobarbital sous forme sodique tel que celui commercialisé sous la marque NEMBUTAL. On mesure ensuite : • - le temps d'endormissement, • - le temps de sommeil, et on détermine le paurcentage de variations en plus ou en moins du temps de sommeil. Les résultats de ces essais figurent dans le tableau II suivant.

COc1cc(OC)c(S(=O)(=O)NCCN2CCCCC2)cc1Cl [Produit 883]
Temps de sommeil (pentobarbital): 176 ± 12 mn

COc1cc(OC)c(S(=O)(=O)NCCCN2CCCCC2)cc1Cl [Produit 888]
Temps de sommeil (pentobarbital): 140 ± 20 mn

CCN(CC)CCNC(=O)c1cc(S(C)(=O)=O)ccc1OC [tiapride, N-(diéthylamino-2 éthyl) méthoxy-2 méthylsulfonyl-5 benzamide, reference compound]
effet sur le sommeil au pentobarbital: potentialisateurs

COc1cc(OC)c(S(=O)(=O)NCCN2CCCCC2)cc1Br [Produit 927]
Temps de sommeil (pentobarbital): 169 ± 26 mn

CCN1CCCC1CNC(=O)c1cc(S(=O)(=O)CC)ccc1OC (stereo not shown) [sultopride, reference compound]
effet sur le sommeil au pentobarbital: potentialisateurs

CCN1CCCC1CNC(=O)c1cc(S(N)(=O)=O)ccc1OC (stereo not shown) [sulpiride, reference compound]
effet sur le sommeil au pentobarbital: tantôt potentialisateur, tantôt antagoniste

COc1cc(OC)c(S(=O)(=O)NCCN2CCCC2)cc1Br [Produit 926]
Temps de sommeil (pentobarbital): 168 ± 30 mn

COc1cc(OC)c(S(=O)(=O)NCCN2CCCC2)cc1Cl [Produit 882]
Temps de sommeil (pentobarbital): 176 ± 21 mn

COc1cc(OC)c(S(=O)(=O)NCCN2CCOCC2)cc1Br [Produit 928]
Temps de sommeil (pentobarbital): 165 ± 24 mn

COc1cc(OC)c(S(=O)(=O)NCCN2CCOCC2)cc1Cl [Produit 884]
Temps de sommeil (pentobarbital): 150 ± 24 mn

COc1cc(OC)c(S(=O)(=O)NCCCN2CCCCC2)cc1Br [Produit 932]
Temps de sommeil (pentobarbital): 142 ± 15 mn

COc1cc(OC)c(S(=O)(=O)NCCCN2CCOCC2)cc1Cl [Produit 889]
Temps de sommeil (pentobarbital): 156 ± 15 mn

COc1cc(OC)c(S(=O)(=O)NCCCN2CCOCC2)cc1Br [Produit 933]
Temps de sommeil (pentobarbital): 180 ± 32 mn
